Experimental data taken from the NIST ThermoML archive (doi:10.1016/j.fluid.2008.02.008).
Numbers after ± are expanded uncertainties.

Key:
[1] = refractive index (Na D-line) (dimensionless); details: 298.15 K; 101.33 kPa; Liquid; Standard Abbe refractometry
[2] = 298.15 K, 101.33 kPa, Liquid; for mass density: Pycnometric method; for speed of sound: Sing-around technique in a fixed-path interferometer

| SMILES | refractive index [1] | mass density [2] [kg/m3] | speed of sound [2] [m/s] |
| --- | --- | --- | --- |
| O=C1CCCN1C1CCCCC1 [N-cyclohexylpyrrolidinone] | 1.4975 ± 0.00082 | 1025.56 ± 1.7 | 1555.7 ± 2.3 |
| CCC(C)(C)C [2,2-dimethylbutane] | 1.36608 ± 0.00075 | 644.43 ± 0.61 | 999.69 ± 1.3 |
| CC(C)C(C)C [2,3-dimethylbutane] | 1.37275 ± 0.00094 | 658.562 ± 1.3 | 1047.1 ± 3.1 |
| CCCC(C)C [2-methylpentane] | 1.36893 ± 0.00075 | 648.614 ± 0.62 | 1082.6 ± 1.3 |
| CC(C)CC(C)(C)C [2,2,4-trimethylpentane] | 1.38917 ± 0.00073 | 687.817 ± 0.62 | 1082.6 ± 1 |
| CCC(C)CC [3-methylpentane] | 1.37399 ± 0.00075 | 659.806 ± 0.63 | 1072.1 ± 1.3 |
| CN1CCCC1=O [N-methylpyrrolidone] | 1.46876 ± 0.00075 | 1027.88 ± 1.1 | 1545 ± 1.5 |

The next lines start with the values.

| refractive index [1] | mass density [2] [kg/m3] | speed of sound [2] [m/s] | SMILES |
| --- | --- | --- | --- |
| 1.42378 ± 0.00072 | 773.948 ± 0.69 | 1254.9 ± 0.97 | C1CCCCC1 [cyclohexane] |
| 1.3325 ± 0.00075 |  |  | O [water] |
| 1.39538 ± 0.00073 | 698.638 ± 0.63 | 1170.4 ± 1.1 | CCCCCCCC [octane] |
| 1.37237 ± 0.00075 | 654.961 ± 0.62 | 1077.6 ± 1.3 | CCCCCC [hexane] |
| 1.45624 ± 0.00075 | 830.967 ± 0.82 | 1387.8 ± 1.4 | C1CCCCCCC1 [cyclooctane] |
| 1.4099 ± 0.00075 | 726.176 ± 0.7 | 1232.5 ± 1.4 | CCCCCCCCCC [decane] |
